The source of these data is patent publication US4755527A, “Aryl substituted aminomethyl benzene derivatives” (priority 1985, dated 1988).

Assay [1] has as its system ventricular arrhythmias induced by ouabain (Ouabain dog). Nature of the assay: Antiarrhythmic activity in the Ouabain dog model (i.v. infusion). The class given is in vivo. As to conditions: Ouabain dog, IV infusion, ED is the effective dose required to sustain normal sinus rhythm; for minimal effective dose: Canis lupus familiaris, read-out: Antiarrhythmic ED in Ouabain Dog. The protocol:
The following examples describe the pharmacological evaluation of the compounds in accordance with the present invention. In particular, these examples describe the evaluation of antiarrhythmic activity in the Oubain dog model. […] The test compound was infused intravenously in saline at a rate of about 0.3 to about 5 mg/kg/min until normal sinus rhythm or toxicity occurred. Normal sinus rhythm was defined as 90-100% normal complexes over a 5 minute period.

In assay [2] the test system is Guinea Pig Ileum. Nature of the assay: In vitro evaluation of anticholinergic activity in the isolated guinea pig ileum. To be noted: Cavia porcellus; 4 mg/L; inhibition of field-stimulated contractile tension; read-out: Anticholinergic Inhibition of Guinea Pig Ileum (% inhibition at 4 mg/L). Set-up: species or system guinea pig (male Hartley). The protocol: The following examples describe the in vitro evaluation of anticholinergic activity in the isolated guinea pig ileum. Fasted, male Hartley guinea pigs (300-400 g) were killed by a blow to the head. […] One end of the ileal strip was impaled onto a platinum wire electrode; and the other end was tied to a stationary glass rod. Basal tension was set at 0.1-0.3 g and peak developed tension in response to field stimulation (100-150 V, 10 msec pulse duration, 0.2 Hz) was measured with a tension transducer.

With `Nc1ccc(C(=O)Nc2cc(CN3CCCC3)c(O)c(CN3CCCC3)c2)cc1` [XXVIII, N-(4-aminobenzoyl)-3,5-bis(pyrrolidinylmethyl)-4-hydroxyaniline], the minimal effective dose in assay [1] is 4.5 mg/kg. Also, the inhibition at 4 µg/mL in assay [2] was 0%.
For `CN(C(=O)c1ccccc1)c1cc(CN2CCCC2)c(O)c(CN2CCCC2)c1` [XXXIV] the same measures were 16 mg/kg and 16%.
With `O=C(Nc1ccccc1)c1cc(CN2CCCC2)c(O)c(CN2CCCC2)c1` [Example XXXIII, N-([3,5-bis(pyrrolidinylmethyl)-4-hydroxy]benzoyl)-aniline], the minimal effective dose in assay [1] is 3.5 mg/kg.
As to `Cc1cccc(C)c1C(=O)Nc1cc(CN2CCCC2)c(O)c(CN2CCCC2)c1` [IXX, N--(2,6,dimethylbenzoyl)-3,5,-bis(N--pyrrolidinylmethyl)-4-hydroxyaniline], in assay [1], the minimal effective dose stood at 4.3 mg/kg. In addition, in assay [2], the inhibition at 4 µg/mL is 15%.
For the molecule `COc1cc(C(=O)Nc2cc(CN3CCCC3)c(O)c(CN3CCCC3)c2)cc(OC)c1OC` [XVIII], the “Antiarrhythmic ED in Ouabain Dog” value in assay [1] is “inactive”. The inhibition at 4 µg/mL in assay [2] stood at 5.9%.
In the case of `O=C(Nc1cc(CN2CCCC2)c(O)c(CN2CCCC2)c1)c1ccc([N+](=O)[O-])cc1` [VII, N--(4-nitrobenzoyl)-3,5,-bis(N--pyrrolidinylmethyl)-4-hydroxyaniline], the minimal effective dose in assay [1] was determined as 11 mg/kg. Moreover, in assay [2], the inhibition at 4 µg/mL came out at 24%.
For the molecule `Cc1ccccc1C(=O)Nc1cc(CN2CCCC2)c(O)c(CN2CCCC2)c1` [XVI, N--(2-methylbenzoyl)-3,5,-bis(N--pyrrolidinylmethyl)-4-hydroxyaniline], in assay [1], the minimal effective dose was determined as 2 mg/kg. Besides, the inhibition at 4 µg/mL in assay [2] was 9.4%.
For `O=C(Nc1cc(CN2CCCC2)c(O)c(CN2CCCC2)c1)c1ccccc1C(F)(F)F` [XII, N--(2-trifluoromethylbenzoyl)-3,5,-bis(N--pyrrolidinylmethyl)-4-hydroxyaniline] the same measures were 6.2 mg/kg and 0%.
For `Cc1cccc(C(=O)Nc2cc(CN3CCCC3)c(O)c(CN3CCCC3)c2)c1` [XV, N--(3-methylbenzoyl)-3,5,-bis(N--pyrrolidinylmethyl)-4-hydroxyaniline] the same measures were 5.3 mg/kg and 32%.
Regarding `O=C(Nc1cc(CN2CCCC2)c(O)c(CN2CCCC2)c1)c1ccc(Cl)cc1Cl` [VI, N--(2,4,dichorobenzoyl)-3,5,-bis(N--pyrrolidinylmethyl)-4-hydroxyaniline], the “Antiarrhythmic ED in Ouabain Dog” value in assay [1] is “low activity”. Besides, the inhibition at 4 µg/mL in assay [2] was found to be 11%.
As for `O=C(Nc1cc(CN2CCCC2)c(O)c(CN2CCCC2)c1)c1cccc(Cl)c1` [XI, N--(3-chlorobenzoyl)-3,5,-bis(N--pyrrolidinylmethyl)-4-hydroxyaniline], the minimal effective dose in assay [1] came out at 3.75 mg/kg. Also, in assay [2], the inhibition at 4 µg/mL was 37%.
On to `O=C(Cc1cccs1)Nc1cc(CN2CCCC2)c(O)c(CN2CCCC2)c1` [Example XXI], for which the “Antiarrhythmic ED in Ouabain Dog” value in assay [1] was “low activity”. Besides, in assay [2], the inhibition at 4 µg/mL stood at 13%.
Take `O=C(NCc1cc(CN2CCCC2)c(O)c(CN2CCCC2)c1)c1ccccc1Cl` [XXVI, N--(2-chlorobenzoyl)-3,5-bis(pyrrolidinylmethyl)-4-hydroxybenzylamine]: the minimal effective dose in assay [1] worked out at 2.3 mg/kg. In addition, the inhibition at 4 µg/mL in assay [2] was found to be 18%.
The matching figures for `O=C(NCc1cc(CN2CCCC2)c(O)c(CN2CCCC2)c1)c1cccc(Cl)c1` [XXVII, N--(3-chlorobenzoyl)-3,5-bis(pyrrolidinylmethyl)-4-hydroxybenzylamine]: 9.8 mg/kg and 78%.
For `O=C(NCc1cc(CN2CCCC2)c(O)c(CN2CCCC2)c1)c1ccccc1C(F)(F)F` [XXIV, N--(2-trifluoromethylbenzoyl)-3,5-bis(pyrrolidinylmethyl)-4-hydroxybenzylamine] the same measures were 1.7 mg/kg and 8.5%.
For `O=C(NCc1cc(CN2CCCC2)c(O)c(CN2CCCC2)c1)c1ccc(Cl)cc1` [XXIII, N--(4-chlorobenzoyl)-3,5-bis(pyrrolidinylmethyl)-4-hydroxybenzylamine] the same measures were 3.8 mg/kg and 56%.
For `O=C(NCc1cc(CN2CCCC2)c(O)c(CN2CCCC2)c1)c1cccc(C(F)(F)F)c1` [XXV, N--(3-trifluoromethylbenzoyl)-3,5-bis(pyrrolidinylmethyl)-4-hydroxybenzylamine], the minimal effective dose in assay [1] is 5.5 mg/kg. Further, in assay [2], the inhibition at 4 µg/mL was determined as 72%.
For `COc1ccc(C(=O)Nc2cc(CN3CCCC3)c(O)c(CN3CCCC3)c2)cc1` [VIII, N--(4-methoxybenzoyl)-3,5,-bis(N--pyrrolidinylmethyl)-4-hydroxyaniline] the same measures were 7.2 mg/kg and 24%.
The matching figures for `O=C(Nc1cc(CN2CCCCC2)c(O)c(CN2CCCCC2)c1)c1ccccc1` [Example XXXII, N-(benzoyl)3,5-bis(piperidinylmethyl)-4-hydroxyaniline]: 11 mg/kg and 33%.
For `O=C(NCc1cc(CN2CCCC2)c(O)c(CN2CCCC2)c1)c1ccccc1` [Example XXII, N-(benzoyl)-3,5-bis(pyrrolidinylmethyl)-4-hydroxybenzylamine] the same measures were 3 mg/kg and 32%.
In the case of `O=C(NCc1cc(CN2CCCC2)c(O)c(CN2CCCC2)c1)c1ccc(C(F)(F)F)cc1` [XXXV, N-(4-trifluoromethyl)-3,5-bis(pyrrolidinylmethyl)-4-hydroxybenzylamine], in assay [1], the minimal effective dose came to 4.5 mg/kg. In addition, the inhibition at 4 µg/mL in assay [2] turned out to be 49%.
The matching figures for `O=C(Nc1cc(CN2CCCC2)c(O)c(CN2CCCC2)c1)c1ccccc1Cl` [Example X, N--(2-chlorobenzoyl)-3,5,-bis(N--pyrrolidinylmethyl)-4-hydroxyaniline]: 5.8 mg/kg and 0%.
On to `O=C(Nc1cc(CN2CCOCC2)c(O)c(CN2CCOCC2)c1)c1ccccc1` [Example XXXI, N-(benzoy)3,5-bis(morpholinomethyl)-4-hydroxyaniline], for which the minimal effective dose in assay [1] stood at 16.5 mg/kg. Moreover, the inhibition at 4 µg/mL in assay [2] was 37%.
The matching figures for `O=C(Nc1cc(CN2CCCC2)c(O)c(CN2CCCC2)c1)c1cccs1` [Example XX, N--(2-thiophenecarbonyl)-3,5-bis(N--pyrrolidinylmethyl)-4-hydroxyaniline]: 1.9 mg/kg and 4%.
The matching figures for `O=C(Nc1cc(CN2CCCC2)c(O)c(CN2CCCC2)c1)c1c(Cl)cccc1Cl` [XVII, N--(2,6,dichlorobenzoyl)-3,5,-bis(N--pyrrolidinylmethyl)-4-hydroxyaniline]: 2 mg/kg and 14.3%.
For the molecule `COc1ccccc1C(=O)Nc1cc(CN2CCCC2)c(O)c(CN2CCCC2)c1` [XIV, N--(2-methoxybenzoyl)-3,5,-bis(N--pyrrolidinylmethyl)-4-hydroxyaniline], the minimal effective dose in assay [1] came out at 3 mg/kg. Besides, in assay [2], the inhibition at 4 µg/mL worked out at 31%.
For `O=C(Nc1cc(CN2CCCC2)c(O)c(CN2CCCC2)c1)c1cccc(C(F)(F)F)c1` [IX, N--(3-trifluoromethylbenzoyl)-3,5,-bis(N--pyrrolidinylmethyl)-4-hydroxyaniline] the same measures were 2.25 mg/kg and 62%.
